Experimental data published in patent US9931324B2, “Indolizine derivatives and their use in neurodegenerative diseases” (Merck Patent GmbH, priority 2014, dated 2018).

Key:
[1] = molecular target: T1, P2X7 (Homo sapiens, UniProt Q99572); test: Pore permeation assay (YO PRO dye uptake, BzATP-induced); assay type: cell-based; design: expressed in transfected cells; host or cells: HEK293; settings: HEK293 transfected with human P2X7 receptor, BzATP 10 uM, read-out: hP2X7 IC50
T1 sequence (Q99572 1-595): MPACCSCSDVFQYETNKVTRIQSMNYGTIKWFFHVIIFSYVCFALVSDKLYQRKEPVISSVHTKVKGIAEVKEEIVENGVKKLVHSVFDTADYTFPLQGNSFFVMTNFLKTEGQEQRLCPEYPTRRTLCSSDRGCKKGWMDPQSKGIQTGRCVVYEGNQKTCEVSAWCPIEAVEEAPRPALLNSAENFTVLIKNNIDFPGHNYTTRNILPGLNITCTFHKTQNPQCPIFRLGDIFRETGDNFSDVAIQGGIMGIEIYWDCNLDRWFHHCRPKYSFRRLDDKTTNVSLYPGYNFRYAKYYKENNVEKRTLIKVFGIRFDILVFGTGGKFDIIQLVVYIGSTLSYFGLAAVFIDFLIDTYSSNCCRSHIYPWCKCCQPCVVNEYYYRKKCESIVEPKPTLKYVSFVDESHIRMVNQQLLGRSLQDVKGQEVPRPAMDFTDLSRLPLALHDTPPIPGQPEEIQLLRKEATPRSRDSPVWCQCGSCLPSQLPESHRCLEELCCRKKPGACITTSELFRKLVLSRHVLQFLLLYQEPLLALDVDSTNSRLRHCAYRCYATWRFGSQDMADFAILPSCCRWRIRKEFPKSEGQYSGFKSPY
Protocol: Agonist-induced pore formation was determined by measuring cellular uptake of YO PRO fluorescence dye in HEK293 transfected with human P2X7 receptor. A HEK293 cell over expressing human P2X7 was harvested using HQTase reagent to detach the cells from T75 cm flask. The harvested cells are centrifuged @1200 rpm for 5 min at room temperature. The viability of cells was determined by Trypan blue dye and the cells are plated @10,000 cell/well in 50 ul volume in a 384W BD Poly lysine coated plate and incubated overnight at 37 C. After overnight incubation, the culture medium was replaced with 35 ul/well assay buffer (5 mM KCl, 0.1 mM CaCl2, 5 mM Glucose, 10 mM HEPES buffer pH7.4 containing 125 mM NaCl. The serial dilution of compounds was performed using Bravo liquid handling instrument and the compounds were added using Bravo to the cell assay plate starting at 2.5 uM with three dilutions for 10 points. The positive control inhibitor compound was added to column 23. The plate was shaken slowly on a plate shaker for 10 seconds. The cells were incubated with the compound for 20 minutes at room temperature. After the incubation period, YO PRO dye (1 uM) along with BzATP (10 uM) were added to cells at 10 ul/well. The plate was centrifuged at 1000 rpm for 5 seconds and incubated at room temperature for 30 minutes. The uptake of YO PRO dye into the cells was measured using Envision Fluorescence plate reader instrument (Perkin Elmer).

[2] = molecular target: T1, P2X7; test: IL-1β release assay in THP-1 cells (sandwich ELISA, BzATP-stimulated); assay type: cell-based; design: endogenous in cells; host or cells: THP-1 cells (PMA-differentiated, LPS-primed); settings: LPS primed, 0.8 mM BzATP, mature IL-1β release, read-out: hTHP-1/IL-ib IC50
Protocol: IL-1β release assay: The activation of P2X7 by ATP leads to a fast transient activation of cells resulting in influx of Ca^2+ followed by conversion of pro-IL-1β to active IL-1β. The functional activity of P2X7 compounds was measured by the release of mature IL-1β in the culture medium of THP-1 cells, detected by sandwich ELISA. Cells were maintained in complete growth medium (RPMI 1640+10% HI-FCS+2 mM L-glutamine+1× PS). […] THP-1 cells were harvested from the flask in 50 ml by centrifugation for 3 min at 100 g. The cells were resuspended to 2×10^5 cells/ml in medium supplemented with 0.5 μM PMA and incubated. The cells were washed and resuspended to 1.5×10^5 cells/ml in medium complemented with 10 ng/ml LPS, and the cells were primed for 4 h at 37° C., 5% CO2. After addition of 20 μL of prediluted test compounds, blank, standard and control reagents, cells were incubated for a further 20 min at 37° C. and stimulated with 0.8 mM BzATP for 30 minutes. The cells were centrifuged, supernatant was collected and the presence of mature IL-1β was detected using Dual human IL-1b kit following manufacturer's instruction. The tetrahydrobenzodiazepine analogs effectively modulated the activity of P2X7 in the cells as measured by the levels of pro-inflammatory cytokine IL-1β, which is released by the activation of P2X7 receptor.

Compound	IC50 [1] [nM]	IC50 [2] [nM]
(S)-8-chloro-N-((4,4-difluoro-1-hydroxycyclohexyl)methyl)-3-((tetrahydrofuran-3-yl)methyl)indolizine-1-carboxamide [Compound 52]	10 to 100	10 to 100
COCCc1cc(C(=O)NCC2(O)CCCC(F)(F)C2)c2c(Cl)cccn12 (centres unmarked) [Compound 62, 8-Chloro-3-(2-methoxy-ethyl)-indolizine-1-carboxylic Acid (3,3-difluoro-1-hydroxycyclohexylmethyl)-amide]	< 10	10 to 100
COCCc1cc(C(=O)NCC2(O)CCCC3(CC3)C2)c2c(Cl)cccn12 (centres unmarked) [Compound 29, 8-chloro-N-((5-hydroxyspiro[2.5]octan-5-yl)methyl)-3-(2-methoxyethyl) indolizine-1-carboxamide]	101 to 500	101 to 500
COCCc1cc(C(=O)NC[C@@]2(O)CCC[C@@H](C)C2)c2c(Cl)cccn12 [Compound 18]	10 to 100	10 to 100
(R)-8-chloro-N-((4,4-difluoro-1-hydroxycyclohexyl)methyl)-3-((tetrahydrofuran-3-yl)methyl)indolizine-1-carboxamide [Compound 50]	10 to 100	101 to 500
O=C(NCC1CCCCCC1)c1cc(CCO)n2cccc(Cl)c12 [Compound 6, 8-chloro-N-(cycloheptylmethyl)-3-(2-hydroxyethyl)indolizine-1-Carboxamide]	10 to 100	10 to 100
COCCc1cc(C(=O)NCC2(O)CCCC(F)(F)C2)c2c(Cl)cccn12 (stereo in doubt) [Compound 63, 8-Chloro-3-(2-methoxy-ethyl)-indolizine-1-carboxylic Acid ((S)-3,3-difluoro-1-hydroxy-cyclohexylmethyl)-amide]	< 10	< 10
COCCc1cc(C(=O)NCC2(O)CCC(F)(F)CC2)c2c(Cl)cccn12 [Compound 53, 8-chloro-N-((4,4-difluoro-1-hydroxycyclohexyl)methyl)-3-(2-methoxyethyl)indolizine-1-carboxamide]	10 to 100	10 to 100
COCCc1cc(C(=O)NCC2CCCCCC2)c2c(Cl)cccn12 [Compound 1, 8-chloro-N-(cycloheptylmethyl)-3-(2-methoxyethyl)indolizine-1-Carboxamide]	10 to 100	101 to 500
COCCc1cc(C(=O)NCC2CC(C)CC(F)(F)C2)c2c(Cl)cccn12 (centres unmarked) [Compound 13, 8-chloro-N-((3,3-difluoro-5-methylcyclohexyl)methyl)-3-(2-methoxyethyl)indolizine-1-carboxamide]	10 to 100	10 to 100

Now from value to compound:

IC50 [1] [nM]	IC50 [2] [nM]	Compound
10 to 100	10 to 100	O=C(NCC1CCC(F)(F)CC1)c1cc(C2CCCO2)n2cccc(Cl)c12 (centres unmarked) [Compound 23, 8-Chloro-3-(tetrahydro-furan-2-yl)-indolizine-1-carboxylic Acid (4,4-difluoro-cyclohexyl methyl)-amide]
< 10	10 to 100	COCCc1cc(C(=O)NCC2CCCC3(CC3)C2)c2c(Cl)cccn12 (centres unmarked) [Compound 2, 8-chloro-3-(2-methoxyethyl)-N-(spiro[2.5]octan-5-ylmethyl)indolizine-1-carboxamide]
10 to 100	101 to 500	O=C(NCC1CCC(F)(F)CC1)c1cc(CCO)n2cccc(Cl)c12 [Compound 51, 8-chloro-N-((4,4-difluorocyclohexyl)methyl)-3-(2-hydroxyethyl)indolizine-1-carboxamide]
< 10	10 to 100	O=C(NCC1CCCC(F)(F)C1)c1cc(C2CCCO2)n2cccc(Cl)c12 (centres unmarked) [Compound 17, 8-Chloro-3-(tetrahydro-furan-2-yl)-indolizine-1-carboxylic Acid (3,3-difluoro-cyclohexylmethyl)-amide]
101 to 500	101 to 500	O=C(NCC1CCC(F)(F)CC1)c1cc(I)n2cccc(Cl)c12 [Compound 9]
10 to 100	10 to 100	O=C(NCC1CCC(F)(F)CC1)c1cc(C2=COCC2)n2cccc(Cl)c12 [Compound 14, 8-chloro-N-((4,4-difluorocyclohexyl)methyl)-3-(4,5-dihydrofuran-3-yl)indolizine-1-carboxamide]
10 to 100	101 to 500	O=C(NCC1CCCC(F)(F)C1)c1cc(CCO)n2cccc(Cl)c12 (centres unmarked) [Compound 45, 8-chloro-N-((3,3-difluorocyclohexyl)methyl)-3-(2-hydroxyethyl)indolizine-1-carboxamide]
10 to 100	10 to 100	O=C(NC[C@]1(O)CCCC(F)(F)C1)c1cc(C2CCOC2)n2cccc(Cl)c12 (stereo partly drawn) [Compound 67, 8-chloro-N—(((S)-3,3-difluoro-1-hydroxycyclohexyl)methyl)-3-(tetrahydrofuran-3-yl)indolizine-1-carboxamide]
10 to 100	10 to 100	O=C(NCC1CCC(F)(F)CC1)c1cc(C2CCOC2)n2cccc(Cl)c12 (centres unmarked) [Compound 40, 8-chloro-N-((4,4-difluorocyclohexyl)methyl)-3-(tetrahydro-furan-3-yl)indolizine-1-carboxamide]
< 10	10 to 100	O=C(NCC1(O)CCCC(F)(F)C1)c1cc(C2CCCO2)n2cccc(Cl)c12 (centres unmarked) [Compound 54, 8-Chloro-3-(tetrahydro-furan-2-yl)-indolizine-1-carboxylic Acid (3,3-difluoro-1-hydroxycyclohexyl methyl)-amide]
10 to 100	10 to 100	O=C(NCC1(O)CCC(F)(F)CC1)c1cc(C2CCOC2)n2cccc(Cl)c12 (centres unmarked) [Compound 61, 8-chloro-N-((4,4-difluoro-1-hydroxycyclohexyl)methyl)-3-(tetrahydrofuran-3-yl)indolizine-1-carboxamide]
101 to 500	10 to 100	CC1CC(O)(CNC(=O)c2cc(C3CCOCC3)n3cccc(Cl)c23)CCC1(F)F (centres unmarked) [Compound 41, 8-chloro-N-((4,4-difluoro-1-hydroxy-3-methylcyclohexyl)methyl)-3-(tetrahydro-2H-pyran-4-yl)indolizine-1-carboxamide]
10 to 100	10 to 100	O=C(NCC1(O)CCCC(F)(F)C1)c1cc(C2CCOC2)n2cccc(Cl)c12 (centres unmarked) [Compound 65, 8-Chloro-3-(tetrahydro-furan-3-yl)-indolizine-1-carboxylic Acid (3,3-difluoro-1-hydroxycyclohexyl methyl)-amide]
10 to 100	101 to 500	O=C(NCC1CCC(F)(F)CC1)c1cc(CC2CCOC2)n2cccc(Cl)c12 (centres unmarked) [Compound 30, 8-chloro-N-((4,4-difluorocyclo-hexyl)methyl)-3-((tetrahydrofuran-3-yl)methyl)indolizine-1-carboxamide]
10 to 100	101 to 500	O=C(NCC1CCC(F)(F)CC1)c1cc(C2CCC2)n2cccc(Cl)c12 [Compound 5, 8-chloro-3-cyclobutyl-N-((4,4-difluorocyclohexyl)methyl)indolizine-1-carboxamide]
